Measurements reported in patent US7795226B2, “Control of radiation injury” (Biotempt B.V., priority 2006, dated 2010).

System: C57B1/6 mice after Whole Body Irradiation
Test: Whole Body Irradiation 8.6 Gy, treatment from three hours after WBI
Type: in vivo
Protocol: “WBI” stands for Whole Body Irradiation. Radiation damage protection in vivo was assessed after WBI (6.5 to 9.8 Gy, Philips MG 30 at 81 cGy/min) on anesthetized C57B1/6 mice, and survival differences were measured by Kaplan-Meirer analysis. All groups of mice got the first injection with peptide or vehicle (control animals) three hours after the WBI. The group that got a placebo injection experienced 80% mortality, as predicted in this model. The dose of radiation of 8.6 Gray (=8.6 Gy) is known, in this species, to cause about an 80% mortality, so it is called the LD80 (lethal dose for 80%). The deaths started around Day 10, which is typical for what happens in WBI to animals or humans. By around Day 10, the gut lining is so damaged and leaky from the radiation that bacteria get into the circulation and cause gastrointestinal syndrome, and the bone marrow is so damaged that there is an insufficient number of white blood cells to fight the infection (“Bone Marrow Syndrome”), and death ensues. The group with “x” as the symbol got the first injection IV, and the second injection subcutaneously (SC) three hours after that first injection. 100% of these animals survived. […] To an outside observer, they would look like perfectly normal mice. The group with the triangle symbol got its first injection of the peptide via the SC route. Then it got additional SC injections every 48 hours, for a total of three doses (in addition to the first dose), meaning, on Day 3, Day 5, and Day 7. […] The group with the square symbol was identical in procedures to the group with the triangle symbol, except that the 48 hour SC injections continued on until a total of six doses had been injected (in addition to the first dose). So the dosing continued on until Day 13. […] When the animals got lower-level treatment (SC only), if the treatment was prolonged until the second week, here again, there was complete protection.
The group that got a placebo injection experienced 80% mortality, as predicted in this model. The dose of radiation given (8.6 Gray =8.6 Gy) is known, in this species, to cause about an 80% mortality, so it is called the LD80 (lethal dose for 80%). The deaths starting around Day 10, which is typical for what happens in WBI to animals or humans. By around Day 10, the gut lining is so damaged and leaky from the radiation that bacteria get into the circulation and cause sepsis because of Gastrointestinal (GI) Syndrome, and the bone marrow is so damaged that there is an insufficient number of white blood cells to fight the infection (“Bone Marrow Syndrome”), and death ensues.
A first group of peptide-treated mice (group with “x” as the symbol in FIG. 1) got the first injection with AQGV (SEO ID NO:120) IV, and the second injection subcutaneously (SC) three hours after that first injection.
A second group of mice got its first injection of the peptide via the SC route. Then it got additional SC injections every 48 hours, for a total of three doses (in addition to the first dose), meaning, on Day 3, Day 5, and Day 7.
The third group of mice was identical in procedures to the group with the second group, except that the q48 hour SC injections continued on until a total of six doses had been injected (in addition to the first dose). So the dosing continued on until Day 13.

[1] = first SC injection three hours after WBI, then SC every 48 hours, six additional doses
[2] = first injection IV three hours after WBI, second SC three hours later

AQGV
mortality after WBI (in words) [1]: no mortality whatsoever | signs of sickness after WBI (in words) [1]: showed no signs of sickness | mortality after WBI (in words) (first SC injection three hours after WBI, then SC every 48 hours, three additional doses): only one of these animals died | signs of sickness after WBI (in words) [2]: did not show any signs of sickness at all | survival after WBI [2]: 100%
